Assay results as given in PubChem BioAssay AID1918994 (Molecular Pharmacology Branch, DTP, NCI, 2023).
pIC50: −log10 of the molar value.

Test system: 292921-168-R-J2-PDC complex spheroid growth
Assay: Anticancer human tumor 292921-168-R-J2-PDC patient-derived pancreatic carcinoma cell line growth inhibition [AhR]
Details: for viability, T/C: stronger effect = lower value
Text: Multicellular complex tumor spheroid response to aryl hydrocarbon receptor antagonists in combination with a variety of drugs and investigational agents in selected tumor cell lines
The current study was undertaken to assess response to aryl hydrocarbon receptor antagonists in combination with standard-of-care drugs and investigational agents in solid tumor complex spheroid models. Complex spheroids include a stromal component modeled by human endothelial cells (HUVEC) and fibroblasts modeled by human mesenchymal stem cells (MSCs). The concentration ranges selected for each drug and investigational agent were based upon clinically achievable concentrations if the clinical Cmax of the agent was known.
Compounds. The drugs and investigational agents: BAY 2416964 (NSC825713), GNF351 (NSC835774), CH-223191 (NSC835775), CPI-455 (NSC825282), aza-TdCyd (NSC777586), decitabine (NSC127716), belinostat (NSC758774), entinostat (NSC756642), pevonedistat (NSC761192), tazemetostat (NSC777109), talazoparib (NSC765396), olaparib (NSC753686), selinexor (NSC780203), nedisertib (M3814, NSC802822), bortezomib (NSC756655), venetoclax (NSC766270), doxorubicin (NSC123127), elimusertib (BAY189344, NSC800525), ceralasertib (AZD6738, NSC777638), TAK-243 (NSC785004), alisertib (NSC759677), etoposide (NSC141540), topotecan (NSC609699), eribulin (NSC707389), gemcitabine (NSC613327), carboplatin (NSC241240), cisplatin (NSC119875), and SN-38 (NSC673596) were obtained from the National Cancer Institute (NCI) Developmental Therapeutics Program Chemical Repository (32). The FDA-approved anticancer drug set is available from the Developmental Therapeutics Program at https://dtp.cancer.gov/organization/dscb/obtaining/available plates.htm. […] The stock solutions were prepared in dimethyl sulfoxide (DMSO, Sigma-Aldrich, St. Louis, MO, cat. D2650), except for the platinum compounds which were prepared in saline (Quality Biological, Gaithersburg, MD, cat. 114-055-101), at 800-fold the tested concentration and stored at -70 degrees C prior to their use. All drugs and investigational agents were tested over a range starting from a high concentration at or near the clinical Cmax and decreasing in half-log increments. If the clinical Cmax for an agent had not been determined, the highest concentration tested was 10 microM (Table 1).
Cell Culture. All cells were maintained in an incubator at 37 degrees C and 5% CO2 with 95% humidity. The PDC lines were cultured according to standard operating procedures established by the NCI PDMR (https://pdmr.cancer.gov). Briefly, all PDCs were thawed and cultured in Matrigel-coated flasks prepared with a working solution of 1X Ham's F-12 nutrient mix, without supplementation (Invitrogen, Waltham, MA, cat. 11765054), 100 U/mL penicillin-streptomycin (Invitrogen, cat. 15140122), and 2.5% Matrigel (Corning Inc., Corning, NY, cat. 354248) for the first three passages. All PDCs were cultured in complete DMEM/F-12 media containing advanced DMEM/F-12 (Invitrogen, cat. 12634028), 4.9% defined fetal bovine serum, heat inactivated (HyClone Laboratories Inc., Logan, UT, cat. SH30070.03HI), 389 ng/mL hydrocortisone (Sigma-Aldrich, cat. H4001), 9.7 ng/mL human EGF recombinant protein (Invitrogen, cat. PHG0313), 23.4 microg/mL adenine (Sigma-Aldrich, cat. A2786), 97.3 U/mL penicillin-streptomycin (Invitrogen, cat. 15140122), 1.9 mM L-glutamine (Invitrogen, cat. 25030081), and 9.7 microM Y-27632 dihydrochloride (Tocris Bioscience, Bristol, United Kingdom, cat. 1254). The PDCs were cultured in complete DMEM/F12 media without 10 microM Y-27632 dihydrochloride for at least two passages prior to the screen. The established cell lines NCI-H1341 and […] were cultured in DMEM/F-12, HEPES (Invitrogen, cat. 11330032), 5% defined fetal bovine serum (HyClone Laboratories Inc., cat. SH30070.03), ITS premix universal culture supplement [insulin (5 microg/mL), transferrin (5 microg/mL), and selenious acid (5 ng/mL)] […]

[1] = curve of first compound, second compound 0.1 µM
[2] = curve of first compound, second compound 0.316 µM
[3] = curve of first compound, second compound 1 µM
[4] = curve of first compound, second compound 3.16 µM
[5] = curve of first compound, second compound 10 µM
[6] = second compound 0.1 µM, first compound 0.0316 µM
[7] = second compound 0.1 µM, first compound 0.1 µM
[8] = second compound 0.1 µM, first compound 0.316 µM
[9] = second compound 0.1 µM, first compound 1 µM
[10] = second compound 0.1 µM, first compound 3.16 µM
[11] = second compound 0.1 µM, first compound 10 µM
[12] = second compound 0.316 µM, first compound 0.0316 µM
[13] = second compound 0.316 µM, first compound 0.1 µM
[14] = second compound 0.316 µM, first compound 0.316 µM
[15] = second compound 0.316 µM, first compound 1 µM
[16] = second compound 0.316 µM, first compound 3.16 µM
[17] = second compound 0.316 µM, first compound 10 µM
[18] = second compound 1 µM, first compound 0.0316 µM
[19] = second compound 1 µM, first compound 0.1 µM
[20] = second compound 1 µM, first compound 0.316 µM
[21] = second compound 1 µM, first compound 1 µM
[22] = second compound 1 µM, first compound 3.16 µM
[23] = second compound 1 µM, first compound 10 µM
[24] = second compound 3.16 µM, first compound 0.0316 µM
[25] = second compound 3.16 µM, first compound 0.1 µM
[26] = second compound 3.16 µM, first compound 0.316 µM
[27] = second compound 3.16 µM, first compound 1 µM
[28] = second compound 3.16 µM, first compound 3.16 µM
[29] = second compound 3.16 µM, first compound 10 µM
[30] = second compound 10 µM, first compound 0.0316 µM
[31] = second compound 10 µM, first compound 0.1 µM
[32] = second compound 10 µM, first compound 0.316 µM
[33] = second compound 10 µM, first compound 1 µM
[34] = second compound 10 µM, first compound 3.16 µM
[35] = second compound 10 µM, first compound 10 µM
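Note: spheroids exposed to compounds for seven days after three days of growth.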

Row | Structure (SMILES) | pIC50 [1] | pIC50 [2] | pIC50 [3] | pIC50 [4] | pIC50 [5] | viability, T/C [6] [%] | viability, T/C [7] [%] | viability, T/C [8] [%] | viability, T/C [9] [%] | viability, T/C [12] [%] | viability, T/C [13] [%] | viability, T/C [14] [%] | viability, T/C [15] [%] | viability, T/C [18] [%] | viability, T/C [19] [%] | viability, T/C [20] [%] | viability, T/C [21] [%] | viability, T/C [24] [%] | viability, T/C [25] [%] | viability, T/C [26] [%] | other results
1 | Cc1ccccc1N=Nc1ccc(NC(=O)c2ccnn2C)c(C)c1 | – | – | – | – | – | – | – | – | – | – | – | – | – | – | – | – | – | – | – | – | viability, T/C (compound 0.1 µM): 91.3% [middle of 19 runs]; viability, T/C (compound 0.316 µM): 85.6% [middle of 20 runs]; viability, T/C (compound 1 µM): 82.1% [middle of 20 runs]; viability, T/C (compound 10 µM): 62.7% [middle of 21 runs]; pIC50 (compound alone, run of 06/14/2022): < 5.00
2 | COc1cc(C2c3cc4c(cc3C(OC3OC5COC(C)OC5C(O)C3O)C3COC(=O)C23)OCO4)cc(OC)c1O (stereo not given) + CC(CO)NC(=O)c1cc(-c2ccc(Cl)cc2)nn(-c2cnn(C)c2)c1=O | 6.19 | 6.25 | 6.27 | 6.38 | 6.79 | 95.7 | 92.4 | 67.9 | 38 | 89.3 | 85.5 | 65 | 33.6 | 98.8 | 90.9 | 61.7 | 34.4 | 85.1 | 75 | 56.3 | viability, T/C [10]: 22.6%; viability, T/C [11]: 13.7%; viability, T/C [16]: 24.4%; viability, T/C [17]: 13.7%; viability, T/C [22]: 24.6%; viability, T/C [23]: 13.7%; viability, T/C [27]: 31.3%; viability, T/C [28]: 22.4%; viability, T/C [29]: 11.8%; viability, T/C [30]: 60.9%; viability, T/C [31]: 60%; viability, T/C [32]: 38.8%; viability, T/C [33]: 27.4%; viability, T/C [34]: 19.6%; viability, T/C [35]: 11.4%
3 | COc1cccc2c1C(=O)c1c(O)c3c(c(O)c1C2=O)CC(O)(C(=O)CO)CC3OC1CC(N)C(O)C(C)O1 (stereo not given) + CC(CO)NC(=O)c1cc(-c2ccc(Cl)cc2)nn(-c2cnn(C)c2)c1=O | > 7.50 | > 7.50 | > 7.50 | > 7.50 | > 7.50 | 32.5 | 22.5 | 7.11 | 1.19 | 31.8 | 21.6 | 8.73 | 1.26 | 31.9 | 26.1 | 8.6 | 1.22 | 29.6 | 22.4 | 5.98 | viability, T/C [10]: 3.72%; viability, T/C [11]: 4.17%; viability, T/C [16]: 2.17%; viability, T/C [17]: 4.63%; viability, T/C [22]: 2%; viability, T/C [23]: 4.64%; viability, T/C [27]: 1.4%; viability, T/C [28]: 2.71%; viability, T/C [29]: 3.71%; viability, T/C [30]: 25.2%; viability, T/C [31]: 19.9%; viability, T/C [32]: 4.23%; viability, T/C [33]: 1.07%; viability, T/C [34]: 2.43%; viability, T/C [35]: 5.08%
4 | Nc1ncn(C2CC(O)C(CO)O2)c(=O)n1 (stereo not given) + CC(CO)NC(=O)c1cc(-c2ccc(Cl)cc2)nn(-c2cnn(C)c2)c1=O | < 6.00 | < 6.00 | < 6.00 | < 6.00 | < 6.00 | 87.1 | 88.8 | 80.9 | 73.7 | 105 | 90.8 | 85.8 | 77.8 | 103 | 94.5 | 86.2 | 78.8 | 92.4 | 76.5 | 81.4 | viability, T/C (second compound 0.1 µM, first compound 0.00316 µM): 102%; viability, T/C (second compound 0.1 µM, first compound 0.01 µM): 93.3%; viability, T/C (second compound 0.316 µM, first compound 0.00316 µM): 101%; viability, T/C (second compound 0.316 µM, first compound 0.01 µM): 96.3%; viability, T/C (second compound 1 µM, first compound 0.00316 µM): 97.5%; viability, T/C (second compound 1 µM, first compound 0.01 µM): 104%; viability, T/C (second compound 3.16 µM, first compound 0.00316 µM): 94.7%; viability, T/C (second compound 3.16 µM, first compound 0.01 µM): 91%; viability, T/C [27]: 69.5%; viability, T/C (second compound 10 µM, first compound 0.00316 µM): 70.3%; viability, T/C (second compound 10 µM, first compound 0.01 µM): 72.8%; viability, T/C [30]: 71%; viability, T/C [31]: 73%; viability, T/C [32]: 63%; viability, T/C [33]: 62.5%
